Test results published in patent US20260306460A1, “COMPOSITION FOR REMOVING AND INHIBITING SENESCENT CELLS, AND USES THEREOF” (LIFECEUTIX CO., LTD., priority 2023, published 2026).

Legend:
senescent human cells = experiment: Viability of doxorubicin-induced senescent human cells (CellTiter-Glo), Example 11; assay type: cell-based; settings: 0 μM = 100
Protocol: Cells in which senescence was induced by treatment with doxorubicin were treated with the test compound at designated concentrations and measured using the CellTiter-Glo Luminescent Cell Viability Assay (Promega).
(§1) After 3 days, cell viability was measured using CellTiter-Glo Luminescent Cell Viability Assay (Promega) or light microscopy.

senescent foreskin cells = experiment: Survival of senescent human cells treated with supernatant (secreted fluid) from death-induced cells, Example 13; assay type: cell-based; settings: Table 8; supernatant from dying senescent cells treated at 30, 90 or 270 μM (as Example 11); senescent treated cells
Protocol: as §1
During this additional culture, by checking with an optical microscope, etc., the medium supernatants containing secreted fluid from normally proliferating and senescent cells in which cell death was induced were obtained. The obtained medium supernatant was replaced with the medium of normally proliferating and senescent cells, respectively, and cell survival rate was measured after 3 days.

[1] = system: HMGN1 secreted from senescent A549 cells; experiment: HMGN1 secretion (ELISA) from senescent A549 cancer cells, Example 12; assay type: cell-based, human; settings: senescent untreated = 100%; 30 μM; 90 μM for LX-305, 905, 1302, 1601, 1603, 2003, 2702, 2901, 3106; 270 μM for LX-1103, 2005, 2007;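 also: A549 cells made senescent by doxorubicin exposure, with DMSO-treated cells serving as the non-senescent control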
Protocol: (§2) Cells were treated with doxorubicin or control (DMSO) and cultured.

senescent A549 cells [2] = experiment: Viability of senescent A549 cancer cells (CellTiter-Glo), Example 12; assay type: cell-based, human; settings: 0 μM = 100
Protocol: as §2
Cancer cells in which aging was induced by treatment with doxorubicin were treated with the test compound at designated concentrations and measured using the CellTiter-Glo Luminescent Cell Viability Assay (Promega).

[3] = system: HMGN1 secreted from senescent human cells; experiment: HMGN1 secretion (ELISA) from doxorubicin-induced senescent human cells, Example 11; assay type: cell-based; settings: senescent untreated = 100%; 30 μM; 90 μM for LX-305, 1302, 1603, 2005, 2702, 2901, 3106; 270 μM for LX-1103, 2007
naturally aged mice = experiment: Anti-aging evaluation in naturally aged mice, Example 31, Table 55; assay type: in vivo, mouse; settings: for Femur Ctsk mRNA / Kidney Agtr1a mRNA / Liver IL6 mRNA / Liver MMP3 mRNA / Liver p16 mRNA / Open Field Test Time in Center: untreated = 100%; for Heart Sur2a mRNA / Joint Col2a1 mRNA / Skin Col1a1 mRNA / Skin SDF1 mRNA: untreated = 1.0; for Muscle Mass: untreated 0.64 g; for Fat Mass: untreated 0.82 g; for Cataract incidence: untreated 83%;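 as to all read-outs here: Vehicle-dosed control mice received solution alone at matching volume, values compare test-compound-treated aged mice against that control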
Protocol: After the end of drug administration, the method described in each example below was performed. […] The mRNA amounts of p16, MMP3, and IL6 after natural aging was induced were calculated as 100% and compared with the mRNA amounts of p16, MMP3, and IL6 after treatment with the test compound. In addition, an open field test for the analysis of aging-related frailty, agtr1a mRNA analysis for kidney damage and disease evaluation, col1a1 and SDF1 mRNA analysis for skin aging evaluation such as wrinkles/loss of elasticity/hyperpigmentation, col2a1 mRNA analysis for evaluating joint aging such as osteoarthritis, sur2a mRNA analysis for evaluating cardiac aging such as decreased cardiac load resistance, ctsk mRNA analysis for evaluating bone diseases due to aging such as osteoporosis, muscle tissue weight for analyzing sarcopenia, fat tissue weight for analyzing lipoatrophy, and cataract incidence analysis were performed in mice. For cataract incidence analysis, the drug was administered twice a week under the conditions specified above, and biweekly examinations were conducted until death.

[4] = system: bleomycin-induced pulmonary fibrosis mice; experiment: Bleomycin-induced pulmonary fibrosis mice, Example 31, Table 56; assay type: in vivo, mouse; settings: untreated = 100%
How it was run: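 Mice with bleomycin-induced pulmonary fibrosis, untreated or given test compound, with vehicle-only controls. Lung tissue collected for RNA extraction and qRT-PCR analysis.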

[5] = system: carbon tetrachloride-induced liver fibrosis mice; experiment: Carbon tetrachloride-induced liver fibrosis mice, Example 31, Table 57; assay type: in vivo, mouse; settings: CCl4-induced liver fibrosis mice, untreated = 100%
How it was run: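 Mice with induced hepatic fibrosis received either the test compound or, as controls, an equal volume of vehicle solution alone. Once dosing ended, liver tissue was harvested and total RNA was isolated. cDNA was synthesized from this RNA, and quantitative RT-PCR was run on it to measure hepatic mRNA levels of the fibrosis- and senescence-related genes.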

senescent A549 cells [6] = experiment: Viability of senescent A549 cells (CellTiter-Glo), Example 18, Table 15; settings: doxorubicin-induced senescent A549 cells, 0 μM = 100%
Protocol: Senescence-induced cancer cells treated with doxorubicin were treated with the test compound at designated concentrations, and cell viability was measured using the CellTiter-Glo Luminescent Cell Viability Assay (Promega).

[7] = system: HMGN1 secreted from senescent A549 cells; experiment: HMGN1 secretion (ELISA) from senescent A549 cells, Example 18, Table 14; assay type: cell-based, human; settings: doxorubicin-senescent A549, without test compound (DMSO) = 100%; 30 μM (LX-5211, LX-5433, LX-6530, LX-6800, LX-9105, LX-9118, LX-9131, LX-9136, LX-9302, LX-9321, LX-9565, LX-9602 at 90 μM; LX-9336 at 2.4 mM)
Protocol: On the other hand, in cancer cells treated with doxorubicin, where senescence was induced, the amount of HMGN1 measured under conditions where cells were not treated with the test compound was calculated as 100%, and the amount of HMGN1 was measured under conditions where the senescent cancer cells were treated with the test compound.

[8] = system: HMGN1 secreted from senescent cells; experiment: HMGN1 secretion (ELISA) from doxorubicin-induced senescent cells, Example 17; assay type: cell-based, human; settings: senescent untreated = 100%; 30 μM; 90 μM for LX-5211, 5433, 6530, 9105, 9118, 9321, 9602; 2.4 mM for LX-9336
[9] = system: naturally aged C57BL6J mice; experiment: Geriatric depression and anxiety in aged mice, Example 21-8; assay type: in vivo, mouse; settings: aged mice
Text: The amount of senescent-associated secretory factor (SASP) in serum and tissues collected from mice of Examples 21-5 and 21-6 was reduced by treatment with LX-5701, LX-2101, or LX-2102. It was confirmed that removing senescent cells, which increase with aging in mice, and effectively reducing the amount of senescent-associated secretory factor (SASP) can improve symptoms of geriatric depression and anxiety.

[10] = system: obesity-induced aged C57BL6J mice; experiment: Anxiety, depression, lethargy (open field test) in obesity-aged mice, Example 23-4, Table 44; assay type: in vivo, mouse; settings: obesity-aged mice
Protocol: 15-week-old male C57BL6J mice (The Jackson Laboratory) were induced to obesity by a high-fat diet using the same method as in Example 9-1 WO2023-085787 A1. After acclimation to the experimental environment for one week, the mice were randomly assigned to experimental and control groups. […] LX-3002 was mixed in distilled water with 4% DMSO, 30% PEG300, and 5% Tween80 and administered orally at a concentration of 10 mg/kg daily for 21 days. LX-5701 was mixed in PBS and administered orally at a concentration of 360 mg/kg daily for 21 days. LX-6807 was mixed in saline and administered intraperitoneally at a concentration of 1 mg/kg daily for 21 days. The control group received only the solution in the same volume. After the end of drug administration, the methods described in each example below were performed.
It was determined that anxiety and depression caused by obesity are not causally related to increased body weight, but rather are caused by the accumulation of senescent cells. Accordingly, an activity assessment (open field test) was performed using the same method as in Example 7-7 of WO2023-085787 A1 to analyze lethargy caused by anxiety and depression caused by obesity in mice. The table below quantitatively represents activity, a criterion for assessing lethargy due to anxiety and depression, under conditions in which aging was induced by obesity and the test compound was not administered or was administered. The activity assessment after obesity-induced aging was calculated as 100% and compared with the activity assessment after test compound treatment.

senescent cells = experiment: Viability of senescent cells (CellTiter-Glo), Example 17, Table 13; settings: doxorubicin-induced senescent cells, 0 μM = 100
Protocol: Cells induced to undergo senescence by doxorubicin treatment were treated with test compound at designated concentrations and measured using the CellTiter-Glo Luminescent Cell Viability Assay (Promega).

[11] = MST; described in WO2021183908A1; cited from earlier work

## C[N+](C)(C)CCO.C[N+](C)(C)CCO.[SH-].[SH-].[S]=[Mo]=[S] [LX-2601]
Senescent human cells; 1.1 μM
  Survival: 95.2%
Senescent human cells; 10 μM
  Survival: 58.6%
Senescent human cells; 30 μM
  Survival: 21.8%
Senescent human cells; […]
  Survival: 81.8%
Senescent foreskin cells
  Survival: 67.3
[1]
  HMGN1: 193%
Senescent A549 cells [2]; 1.1 μM
  Survival: 98.6%
Senescent A549 cells [2]; 10 μM
  Survival: 59.7%
Senescent A549 cells [2]; 30 μM
  Survival: 50.7%
Senescent A549 cells [2]; […]
  Survival: 86%
[3]
  HMGN1: 263%
Naturally aged mice
  Femur Ctsk mRNA: 60%
  Heart Sur2a mRNA: 2.7 fold
  Joint Col2a1 mRNA: 2.3 fold
  Kidney Agtr1a mRNA: 73%
  Liver IL6 mRNA: 75%
  Liver MMP3 mRNA: 77%
  Liver p16 mRNA: 73%
  Open Field Test Time in Center: 166%
  Skin Col1a1 mRNA: 2.3 Fold
  Skin SDF1 mRNA: 1.9 fold
  Muscle Mass: 0.71 g
  Fat Mass: 0.88 g
  Cataract incidence: 80%
[4]
  Lung p16 mRNA: 81 (±5.2) %
  Col1a1 mRNA: 67 (±3.0) %
[5]
  Liver p16 mRNA: 75 (±3.2) %
  Col1a1 mRNA: 63 (±2.6) %

## CCOC(=O)[C@@H](N)CCC(=O)N[C@@H](CSCc1ccccc1)C(=O)N[C@@H](C(=O)OCC)c1ccccc1 [LX-2602, Ezatiostat]
Senescent human cells; 1.1 μM
  Survival: 97.3%
Senescent human cells; 10 μM
  Survival: 76.9%
Senescent human cells; 30 μM
  Survival: 47.6%
Senescent human cells; […]
  Survival: 92.5%
Senescent foreskin cells
  Survival: 69.5
[1]
  HMGN1: 283%
Senescent A549 cells [2]; 1.1 μM
  Survival: 102.7%
Senescent A549 cells [2]; 10 μM
  Survival: 96%
Senescent A549 cells [2]; 30 μM
  Survival: 32.5%
Senescent A549 cells [2]; […]
  Survival: 107.4%
[3]
  HMGN1: 208%
Naturally aged mice
  Femur Ctsk mRNA: 59%
  Heart Sur2a mRNA: 1.7 fold
  Joint Col2a1 mRNA: 2.2 fold
  Kidney Agtr1a mRNA: 61%
  Liver IL6 mRNA: 80%
  Liver MMP3 mRNA: 64%
  Liver p16 mRNA: 71%
  Open Field Test Time in Center: 158%
  Skin Col1a1 mRNA: 2.5 Fold
  Skin SDF1 mRNA: 2.0 fold
  Muscle Mass: 0.69 g
  Fat Mass: 0.84 g
  Cataract incidence: 81%
[4]
  Lung p16 mRNA: 68 (±3.5) %
  Col1a1 mRNA: 58 (±2.9) %
[5]
  Liver p16 mRNA: 77 (±3.9) %
  Col1a1 mRNA: 82 (±3.7) %

## CN(Cc1cnc2nc(N)nc(N)c2n1)c1ccc(C(=O)N[C@@H](CCC(=O)O)C(=O)O)cc1 [LX-2901, Methotrexate]
Senescent human cells; 1.1 μM
  Survival: 103.3%
Senescent human cells; 10 μM
  Survival: 104.8%
Senescent human cells; 30 μM
  Survival: 93.6%
Senescent human cells; 90 μM
  Survival: 49.9%
Senescent human cells; […]
  Survival: 97.8%
Senescent foreskin cells
  Survival: 97.5
[1]
  HMGN1: 189%
Senescent A549 cells [2]; 1.1 μM
  Survival: 89%
Senescent A549 cells [2]; 10 μM
  Survival: 90.4%
Senescent A549 cells [2]; 30 μM
  Survival: 92.3%
Senescent A549 cells [2]; 90 μM
  Survival: 37.2%
Senescent A549 cells [2]; […]
  Survival: 87.8%
[3]
  HMGN1: 167%
Naturally aged mice
  Femur Ctsk mRNA: 51%
  Heart Sur2a mRNA: 1.7 fold
  Joint Col2a1 mRNA: 4.0 fold
  Kidney Agtr1a mRNA: 67%
  Liver IL6 mRNA: 55%
  Liver MMP3 mRNA: 72%
  Liver p16 mRNA: 64%
  Open Field Test Time in Center: 167%
  Skin Col1a1 mRNA: 1.7 Fold
  Skin SDF1 mRNA: 1.8 fold
  Muscle Mass: 0.69 g
  Fat Mass: 0.90 g
  Cataract incidence: 59%
[4]
  Lung p16 mRNA: 72 (±5.7) %
  Col1a1 mRNA: 61 (±4.3) %
[5]
  Liver p16 mRNA: 59 (±1.3) %
  Col1a1 mRNA: 73 (±3.6) %

## Cc1nc(-c2nc(-c3ccc(OC(F)(F)F)cc3)no2)nn1Cc1cccc(N2CCC(S(C)(=O)=O)CC2)c1 [LX-3200]
Senescent human cells; 1.1 μM
  Survival: 92.2%
Senescent human cells; 10 μM
  Survival: 14.3%
Senescent human cells; […]
  Survival: 78.6%
Senescent foreskin cells
  Survival: 54.9
[1]
  HMGN1: 305%
Senescent A549 cells [2]; 1.1 μM
  Survival: 94.9%
Senescent A549 cells [2]; 10 μM
  Survival: 61.6%
Senescent A549 cells [2]; 30 μM
  Survival: 1.6%
Senescent A549 cells [2]; […]
  Survival: 91.7%
[3]
  HMGN1: 234%
Naturally aged mice
  Femur Ctsk mRNA: 68%
  Heart Sur2a mRNA: 1.4 fold
  Joint Col2a1 mRNA: 1.3 fold
  Kidney Agtr1a mRNA: 62%
  Liver IL6 mRNA: 67%
  Liver MMP3 mRNA: 71%
  Liver p16 mRNA: 77%
  Open Field Test Time in Center: 188%
  Skin Col1a1 mRNA: 1.4 Fold
  Skin SDF1 mRNA: 1.6 fold
  Muscle Mass: 0.69 g
  Fat Mass: 1.03 g
  Cataract incidence: 72%
[4]
  Lung p16 mRNA: 76 (±5.7) %
  Col1a1 mRNA: 63 (±6.9) %
[5]
  Liver p16 mRNA: 75 (±9.8) %
  Col1a1 mRNA: 80 (±9.6) %

## CN(CCOc1ccc(CC2SC(=O)NC2=O)cc1)c1ccccn1 (stereo not shown) [LX-9423, Rosiglitazone]
Senescent A549 cells [6]; 1.1 μM
  Survival (%): 82.1%
Senescent A549 cells [6]; 10 μM
  Survival (%): 39.8%
Senescent A549 cells [6]; 30 μM
  Survival (%): 3.0%
Senescent A549 cells [6]; […]
  Survival (%): 78.3%
[7]
  HMGN1: 239%
[8]
  HMGN1: 227%
[9]
  amount of SASP, p16, SA-β-gal, lipofuscin: reduced
  symptoms of geriatric depression and anxiety: improved
[10]
  geriatric depression: similarly improving geriatric depression
Senescent cells; 1.1 μM
  Survival (%): 79.5%
Senescent cells; 10 μM
  Survival (%): 25.4%
Senescent cells; 30 μM
  Survival (%): 8.7%
Senescent cells; […]
  Survival (%): 71.8%

## CC(C)(C)OC(=O)CCN1C(=O)c2ccccc2C1=O [QW-011]
[11]
  Kd: 926 nM

## CC(C)OC(=O)CCCN1C(=O)c2ccccc2C1=O [QW-017]
[11]
  Kd: 399 nM

## CC(C)(C)OC(=O)C(C)(C)N1C(=O)c2ccccc2C1=O [QW-020]
[11]
  Kd: 2140 nM

## CC(C(=O)OC(C)(C)C)N1C(=O)c2ccccc2C1=O (stereo not shown) [QW-023]
[11]
  Kd: 1780 nM

## CC(C)(C)OC(=O)CCCCCN1C(=O)c2ccccc2C1=O [QW-029]
[11]
  Kd: 2100 nM

## CC(C)(C)OC(=O)C(N1C(=O)c2ccccc2C1=O)C(C)(C)C (stereo not shown) [QW-034]
[11]
  Kd: 979 nM

## CCC(C)C(C(=O)OC(C)(C)C)N1C(=O)c2ccccc2C1=O (stereo not shown) [QW-050]
[11]
  Kd: 2430 nM
